Data set [1] can be described thus: Acute toxicity (50% lethal dose, determined graphically). In kind it is in vivo, mice (CDl). Conditions: mouse, in vivo, CDl mice. On the procedure:
(§1) Acute toxicity: the experiments were carried out on CDl mice of average weight 20 g. The 50% lethal dose (LD 50) was determined graphically.

In data set [2] the test system is rats. Nature of the data set: Anorexia-inducing action, food consumption of female SJ (Janvier) rats. The format is in vivo. Conditions: for ED50: Rattus norvegicus, female SJ (Janvier) rats, oral, 1 hour before distribution of food. On the procedure:
(§2) The experiment was carried out by administering each compound orally at several doses to batches of 8 animals per dose, 1 hour before the distribution of the food, and graphically determining the 50% active doses (AD 50 = dose capable of reducing the food consumption by 50%).

For data set [3], the system named is rats. Nature of the data set: Anorexia-inducing action, food consumption of male Charles River rats, 1 hour and 6 hours after administration. In kind it is in vivo. To be noted: Rattus norvegicus, oral. On the procedure: as §2
The AD 50 (i.e. the dose which reduces food consumption by 50% compared with untreated controls) was also determined, in the same way as that described above, on male `Charles River` rats, 1 hour and 6 hours after administration of the compounds under test.

The subject of the next data set is CDl mice. Nature of the data set: Acute toxicity (50% lethal dose, determined graphically). In kind it is in vivo. On the procedure: as §1
The test system of another data set is CD1 mice. As to the kind of experiment: Conventional actimetry test (motility). In kind it is in vivo.
Where [4] appears, read: intravenous, read-out: Acute toxicity LD 50, intravenous administration.
Where [5] appears, read: oral, read-out: Acute toxicity LD 50, oral administration.
Setting [6] is: 2nd series, read-out: Anorexia-inducing action AD 50, administered orally, 2nd series.
[7] abbreviates: after 1 hour, read-out: Anorexia-inducing Action AD 50 orally after 1 hour.
[8] abbreviates: after 6 hours, read-out: Anorexia-inducing Action AD 50 orally after 6 hours.
[9] abbreviates: 1st series, read-out: Anorexia-inducing action AD 50, administered orally, 1st series.

Each structure is given as a SMILES string. Read-outs that look alike come from different tables or passages of the source.

`Fc1ccc(N2CCNCC2)cc1C(F)(F)F` [SLC-001, 1-(4-fluoro-3-trifluoromethyl-phenyl)-piperazine, reference compound]: the LD50 in data set [1] (setting [4]) was 59 mg/kg; in data set [1] (setting [5]), 150 mg/kg. The ED50 with rats [2] (setting [6]) is 2.2 mg/kg; in the data set on rats [3] (setting [7]), 2 mg/kg; with rats [3] (setting [8]), greater than 6 mg/kg.
Regarding `CCNC(C)Cc1cccc(C(F)(F)F)c1` (stereo not shown) [Fenfluramine, reference compound], the LD50 in data set [1] (setting [4]) turned out to be 42 mg/kg; in data set [1] (setting [5]), 195 mg/kg. In addition, the ED50 with rats [2] (setting [9]) was 5 mg/kg; in the data set on rats [3] (setting [7]), 1.4 mg/kg; with rats [3] (setting [8]) it was 4 mg/kg.
`Fc1ccc(N2CCNCC2)cc1SC(F)(F)F` [SLC-298, 1-(4-fluoro-3-trifluoromethylthiophenyl)-piperazine]: in the data set with CDl mice (overall conclusion), the toxicity result is reported as “moderate”. In the data set on CDl mice (overall conclusion from LD 50 and AD 50), the therapeutic index entry is given as “high”. Further, the LD50 in data set [1] (setting [4]) was 60 mg/kg; in data set [1] (setting [5]), 150 mg/kg. Also, the ED50 in the data set on rats [2] (setting [9]) turned out to be 1.5 mg/kg; with rats [2] (setting [6]) it was 1.8 mg/kg; with rats [3] (setting [7]), 1.9 mg/kg; in the data set with rats [3] (setting [8]) it was 2.7 mg/kg. Also, the “anorexia-inducing activity compared with the reference compounds” value in the data set on rats [2] (overall conclusion from Tables I and II) was “more active as an anorexia-inducing agent than the reference compounds”. The “motor activity at higher doses” value in the data set on CD1 mice (CD1 mice, 20 mg/kg) is on record as “reduces the motor activity”. For the same molecule, the “motility at a low dose” value with CD1 mice (CD1 mice, up to 5 mg/kg) is listed as “only very slightly increases the motility”. Moreover, the stimulant effect result in the data set on CD1 mice (overall conclusion) is “little or no stimulant effect”.
